Legend:
[1] = test system: WHHL (Watanabe heritable hyperlipidemic) rabbits; assay: Blood lipid levels in WHHL (LDL receptor-deficient) rabbits fed the compound in feedstuff for 14 days (Test Example 2); assay type: in vivo, rabbit; conditions: Means ± SEM (n = 6)
Method: WHHL (Watanabe heritable hyperlipidemic) rabbits (2 to 3 months-old, four male, eight female), LDL receptor-deficient animal were used. The body weight was measured. Blood was then taken from the ear central artery, and the total cholesterol (TC) and triglyceride (TG) in blood plasma were measured using Wako Pure Chemical kit (manufactured by Wako Pure Chemicals, Inc.) and an autoanalyzer (Hitachi 7070). The animals were divided into two groups, each of which consisted of six animals. The subject compound was mixed with a basic feedstuff (RC-4, Oriental Yeast, Co., Ltd) in an amount of 0.2%, and the mixed feedstuff was fed to the animals in an amount of 120 g per a day (corresponds to the amount of 100 mg/kg/day). To the control group was fed basic feedstuff in an amount of 120 g per a day. The blood lipid levels at the starting of administration and after finishing the administration for 14 days are shown in Table 2 and Table 3, respectively.

[2] = test system: common marmosets; assay: Plasma lipid change in common marmosets after four days of oral administration (Test Example 1); assay type: in vivo, common marmoset; conditions: male common marmosets, 100 mg/kg/day oral once a day for four days, blood plasma on fifth day, Means ± SEM (N = 5)
Method: Male common marmosets (300-500 g) were bred while feeding normal feed (CMS-1, CLEA Japan, Inc.) and water freely. The body weight was measured. Blood was taken from the femoral vein, and the total cholesterol (TC), HDL-cholesterol (HDL-C) and triglyceride (TG) in blood plasma were measured using Wako Pure Chemical kit (manufactured by Wako Pure Chemicals, Inc.) and an autoanalyzer (Hitachi 7070). The animals were devided into groups, each of which consisted of five animals. The subject compound, as a suspension in 0.5% methylcellulose, was forced oral administration to the animals once a day and for four days. On the morning of the fifth day, the body weight was measured. Blood was then taken from the femoral vein, and the total cholesterol, triglyceride and HDL-cholesterol in blood plasma were measured according to the above-mentioned method. The non-HDL-C was calculated by subtracting the HDL-cholesterol from the total cholesterol.

[3] = 0.2% in feed (corresponds to 100 mg/kg/day), after 14 days relative to initial
[4] = 0.2% in feed (corresponds to 100 mg/kg/day), after administration for 14 days
[5] = blood plasma at the starting of administration (baseline) of the 0.2% in feed group

SMILES: COc1cccc([C@H]2O[C@H](CC(=O)N3CCC(CC(=O)O)CC3)C(=O)N(CC(C)(C)COC(C)=O)c3ccc(Cl)cc32)c1OC [subject compound, N-[[(3R,5S)-1-(3-acetoxy-2,2-dimethylpropyl)-7-chloro-5-(2,3-dimethoxyphenyl)-2-oxo-1,2,3,5-tetrahydro-4,1-benzoxazepin-3-yl]acetyl]piperidine-4-acetic acid]
- TC % of initial [1, 3]: 85 ± 2 %
- TG % of initial [1, 3]: 40 ± 3 %
- TC (mg/dL) end [1, 4]: 715 ± 36 mg/dL
- TG (mg/dL) end [1, 4]: 107 ± 10 mg/dL
- TC (mg/dL) initial [1, 5]: 838 ± 45 mg/dL
- TG (mg/dL) initial [1, 5]: 272 ± 24 mg/dL
- HDL-C (%-change) [2]: 16.2 ± 10%
- TG (%-change) [2]: −37.6 ± 17%
- Non-HDL-C (%-change) ([2]; non-HDL-C = total cholesterol minus HDL-cholesterol): −40.4 ± 4 %

Source: patent publication US20080058310A1, “High-density lipoprotein-cholesterol level elevating agent” (Takeda Pharmaceutical Company Limited, priority 2000, published 2008)
